Source: ChEMBL document CHEMBL5126599, “Development of S-aryl dithiocarbamate derived novel antiproliferative compound exhibiting tubulin bundling” (Bioorg Med Chem, 2022)
The source made the active and inactive calls. The calls are words filed in the database; no cut-off is given here.

Legend:
A549 = assay: Antiproliferative activity against human A549 cells assessed as reduction in cell viability incubated for 72 hrs by MTT assay; type: functional, cell-based; details: A549, 72 h
HeLa [1] = assay: Antiproliferative activity against human HeLa cells assessed as reduction in cell viability incubated for 72 hrs by MTT assay; type: functional, cell-based
MCF7 = assay: Antiproliferative activity against human MCF7 cells assessed as reduction in cell viability incubated for 72 hrs by MTT assay; type: functional, cell-based; details: MCF7, 72 h
MDA-MB-231 = assay: Antiproliferative activity against human MDA-MB-231 cells assessed as reduction in cell viability incubated for 72 hrs by MTT assay; type: functional, cell-based; details: MDA-MB-231, 72 h
HeLa [2] = assay: Antiproliferative activity against human HeLa cells assessed as reduction in number of colonies at 0.432 to 0.864 uM for 72 hrs with media renew every 2 days and measured upto 2 weeks by crystal violet staining based microscopic analysis; type: functional, cell-based; details: dose 0.432-0.864 µM, DDE = dose-dependent effect
HeLa [3] = assay: Induction of cell cycle arrest in human HeLa cells assessed as accumulation at G2/M phase at 0.432 to 0.864 uM for 72 hrs by DAPI staining based fluorescence microscopy; type: functional; details: dose 0.432-0.864 µM, DDE = dose-dependent effect
HeLa [4] = assay: Induction of apoptosis in human HeLa cells assessed as fold change as increase in necrotic cells at 0.432 to 0.864 uM for 72 hrs by Annexin-V/PI staining based fluorescence microscopy relative to control; type: functional; details: dose 0.432-0.864 µM
HeLa [5] = assay: Induction of cell cycle arrest in human HeLa cells assessed as fold change as increase in accumulation at G2/M phase at 0.432 to 0.864 uM for 72 hrs by PI staining based flow cytometry relative to control; type: functional; details: dose 0.432-0.864 µM
HeLa [6] = assay: Induction of apoptosis in human HeLa cells assessed as fold change as increase in apoptotic cells at 0.432 to 0.864 uM for 72 hrs by PI staining based flow cytometry relative to control; type: functional; details: dose 0.432-0.864 µM
HeLa [7] = assay: Induction of cell cycle arrest in human HeLa cells assessed as increase in cyclin B1 expression at 0.432 to 0.864 uM for 72 hrs by Western blot analysis; type: functional, cell-based; details: dose 0.432-0.864 µM, DDE = dose-dependent effect
HeLa [8] = assay: Induction of apoptosis in human HeLa cells assessed as increase in p53 protein expression at 0.432 to 0.864 uM for 72 hrs by Western blot analysis; type: functional, cell-based; details: dose 0.432-0.864 µM, DDE = dose-dependent effect
HeLa [9] = assay: Induction of apoptosis in human HeLa cells assessed as increase in p21 protein expression at 0.432 to 0.864 uM for 72 hrs by Western blot analysis; type: functional, cell-based; details: dose 0.432-0.864 µM
Tubulin (Homo sapiens) [10] = molecular target: T1, Tubulin (Homo sapiens) (UniProt P68371+Q9H4B7+P0DPH7+P68366+Q13509+Q71U36+P04350+Q3ZCM7+P07437+P68363+Q9BQE3+Q6PEY2+Q13885+Q9BVA1+Q9BUF5); assay: Induction of microtubule stabilization in human HeLa cells assessed as microtubule bundling at 0.5 to 1 uM for 24 hrs by DAPI staining based fluorescence microscopy; type: cell-based; details: dose 0.5-1 µM, DDE = dose-dependent effect
Tubulin (Homo sapiens) [11] = molecular target: T1, Tubulin (Homo sapiens); assay: Induction of microtubule stabilization in human HeLa cells assessed as increase in alpha-tubulin level in cell pellet at 0.5 to 1 uM for 48 hrs by Western blot analysis; type: cell-based; details: dose 0.5-1 µM, DDE = dose-dependent effect
Tubulin (Homo sapiens) [12] = molecular target: T1, Tubulin (Homo sapiens); assay: Induction of microtubule stabilization in human HeLa cells assessed as microtubule bundling at 0.5 uM for 24 hrs by DAPI staining based fluorescence microscopy; type: cell-based
Tubulin (Homo sapiens) [13] = molecular target: T1, Tubulin (Homo sapiens); assay: Induction of microtubule stabilization in human HeLa cells assessed as increase in alpha-tubulin level in cell pellet at 0.5 uM for 48 hrs by Western blot analysis; type: cell-based; details: DDE = dose-dependent effect

Structure (SMILES) | IC50 (A549) | other results
CC(C)(C)OC(=O)N1CCN(C(=S)Sc2ccccc2)CC1 | 447 nM | IC50 (HeLa [1]): 432 nM; IC50 (MCF7): 1750 nM; IC50 (MDA-MB-231): 615 nM; Activity (HeLa [2]): Dde; Activity (HeLa [3]): Dde; fold change (FC) (HeLa [4]): 3; fold change (FC) (HeLa [5]): 4; fold change (FC) (HeLa [6]): 4; Activity (HeLa [7]): Dde; Activity (HeLa [8]): Dde; Activity (HeLa [9]): Active; Activity (Tubulin (Homo sapiens) [10]): Dde; Activity (Tubulin (Homo sapiens) [11]): Dde
CCCCN(CCCC)C(=S)Sc1ccccc1 | 9760 nM | –
CC(C)(C)OC(=O)N1CCN(C(=S)Sc2ccccc2Cl)CC1 | 1560 nM | –
S=C(Sc1ccccc1)N1CCOCC1 | 2520 nM | –
Cc1ccc(C)c(SC(=S)N2CCN(C(=O)OC(C)(C)C)CC2)c1 | 539 nM | –
CC(C)(C)OC(=O)N1CCN(C(=S)Sc2ccc(F)cc2)CC1 | 1560 nM | –
Cc1ccccc1SC(=S)N1CCN(C(=O)OC(C)(C)C)CC1 | 2270 nM | –
CC(C)(C)OC(=O)N1CCN(C(=S)Sc2cccc(Cl)c2)CC1 | 634 nM | –
CC(C)(C)OC(=O)N1CCN(C(=S)Sc2ccc(Br)cc2)CC1 | 1820 nM | –
CC(C)(C)c1ccc(SC(=S)N2CCCCC2)cc1 | 9130 nM | –
Cc1ccc(SC(=S)N2CCN(C(=O)OC(C)(C)C)CC2)cc1 | 2100 nM | –
Cc1cccc(SC(=S)N2CCN(C(=O)OC(C)(C)C)CC2)c1 | 914 nM | –
CC(=O)O[C@H]1C(=O)[C@@]2(C)[C@H]([C@H](OC(=O)c3ccccc3)[C@]3(O)C[C@H](OC(=O)[C@H](O)[C@@H](NC(=O)c4ccccc4)c4ccccc4)C(C)=C1C3(C)C)[C@]1(OC(C)=O)CO[C@@H]1C[C@@H]2O | – | Activity (Tubulin (Homo sapiens) [12]): Active; Activity (Tubulin (Homo sapiens) [13]): Dde
COc1ccc(SC(=S)N2CCN(C(=O)OC(C)(C)C)CC2)cc1 | 712 nM | –
CC(C)(C)OC(=O)N1CCN(C(=S)Sc2ccc(Cl)cc2)CC1 | 1070 nM | –
Cc1cc(C)c(SC(=S)N2CCN(C(=O)OC(C)(C)C)CC2)c(C)c1 | 1460 nM | –
S=C(Sc1ccccc1)N1CCCCC1 | 7930 nM | –
CC(C)(C)OC(=O)N1CCN(C(=S)Sc2ccc(C(C)(C)C)cc2)CC1 | 769 nM | –
